Measured values from BindingDB's records for doi:10.1016/j.bmcl.2009.05.029 (Institute, 2009).

Experiment: Inhibition of EphB2

SMILES | EC50 [nM]
Cc1ccc(C(=O)Nc2cccc(C(F)(F)F)c2)cc1Nc1cncc(C(N)=O)c1 [5-[(2-methyl-5-{[3-(trifluoromethyl)phenyl]carbamoyl}phenyl)amino]pyridine-3-carboxamide] | 40
Cc1cn(-c2cc(NC(=O)c3ccc(C)c(NC(=O)c4ccno4)c3)cc(C(F)(F)F)c2)cn1 [N-(2-methyl-5-(3-(4-methyl-1H-imidazol-1-yl)-5-(trifluoromethyl)phenylcarbamoyl)phenyl)isoxazole-5-carboxamide] | 40
